In ChEMBL document CHEMBL1155838, “Biphenyl amide p38 kinase inhibitors 3: Improvement of cellular and in vivo activity” (Bioorg Med Chem Lett, 2008):

Legend:
Format in all cases: ADME, organism-based
[1] = Clearance in Lewis rat plasma at 0.5 mg/kg, iv; set-up: dose 0.5 mg/kg, route intravenous
[2] = Terminal half life in Lewis rat plasma at 0.5 mg/kg, iv; set-up: dose 0.5 mg/kg, route intravenous; conditions: read-out: beta t1/2 (converted)
[3] = Volume of distribution at steady state in Lewis rat at 0.5 mg/kg, iv; set-up: dose 0.5 mg/kg, route intravenous; conditions: in vivo, read-out: Vdss
[4] = Oral bioavailability in Lewis rat at […]; conditions: in vivo

**Q.** Which clearance [1] does the source give for `Cc1ccc(C(=O)NC2CC2)cc1-c1ccc(C(=O)NCC2CC2)cc1` here?
**A.** 6 mL/min/kg

**Q.** What about the half-life [2] of the same compound?
**A.** 78 min

**Q.** And the Vd [3]?
**A.** 0.6 L/kg

**Q.** What about the bioavailability [4] of the same compound?
**A.** 113%
